Data reported in PubChem BioAssay (NCI).
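Where inhibition never reached the appropriate level, the endpoint shown equals the highest concentration tested. Otherwise, values were interpolated linearly from a five-concentration, 48-hour dose response in 96-well plates. At the GI50, growth is halved. The concentration for full growth arrest is given as TGI.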

How the values were obtained:
Test in all cases: inhibition of tumour cell growth, NCI panel, 48 h
786-0 renal = tested on: 786-0 renal
A498 renal = tested on: A498 renal
A549 NSCLC = tested on: A549 NSCLC
ACHN renal = tested on: ACHN renal
BT-549 breast = tested on: BT-549 breast
CAKI-1 renal = tested on: CAKI-1 renal
CCRF-CEM leukemia = tested on: CCRF-CEM leukemia
COLO 205 colon = tested on: COLO 205 colon
DU-145 prostate = tested on: DU-145 prostate
EKVX NSCLC = tested on: EKVX NSCLC
HCC-2998 colon = tested on: HCC-2998 colon
HCT-116 colon = tested on: HCT-116 colon
HCT-15 colon = tested on: HCT-15 colon
HL-60(TB) leukemia = tested on: HL-60(TB) leukemia
HOP-62 NSCLC = tested on: HOP-62 NSCLC
HOP-92 NSCLC = tested on: HOP-92 NSCLC
HS 578T breast = tested on: HS 578T breast
HT29 colon = tested on: HT29 colon
IGROV1 ovarian = tested on: IGROV1 ovarian
K-562 leukemia = tested on: K-562 leukemia
KM12 colon = tested on: KM12 colon
LOX IMVI melanoma = tested on: LOX IMVI melanoma
M14 melanoma = tested on: M14 melanoma
MALME-3M melanoma = tested on: MALME-3M melanoma
MCF7 breast = tested on: MCF7 breast
MDA-MB-231 breast = tested on: MDA-MB-231 breast
MDA-MB-435 = tested on: MDA-MB-435
MOLT-4 leukemia = tested on: MOLT-4 leukemia
NCI-H226 lung = tested on: NCI-H226 lung
NCI-H23 lung = tested on: NCI-H23 lung
NCI-H460 lung = tested on: NCI-H460 lung
NCI-H522 lung = tested on: NCI-H522 lung
NCI/ADR-RES ovarian = tested on: NCI/ADR-RES ovarian
OVCAR-3 ovarian = tested on: OVCAR-3 ovarian
OVCAR-4 ovarian = tested on: OVCAR-4 ovarian
OVCAR-5 ovarian = tested on: OVCAR-5 ovarian
OVCAR-8 ovarian = tested on: OVCAR-8 ovarian
PC-3 prostate = tested on: PC-3 prostate
RPMI-8226 leukemia = tested on: RPMI-8226 leukemia
RXF 393 renal = tested on: RXF 393 renal
SF-268 CNS = tested on: SF-268 CNS
SF-295 CNS = tested on: SF-295 CNS
SF-539 CNS = tested on: SF-539 CNS
SK-MEL-2 melanoma = tested on: SK-MEL-2 melanoma
SK-MEL-28 melanoma = tested on: SK-MEL-28 melanoma
SK-MEL-5 melanoma = tested on: SK-MEL-5 melanoma
SK-OV-3 ovarian = tested on: SK-OV-3 ovarian
SN12C renal = tested on: SN12C renal
SNB-19 CNS = tested on: SNB-19 CNS
SNB-75 CNS = tested on: SNB-75 CNS
SR leukemia = tested on: SR leukemia
SW-620 colon = tested on: SW-620 colon
T-47D breast = tested on: T-47D breast
TK-10 renal = tested on: TK-10 renal
U251 CNS = tested on: U251 CNS
UACC-257 melanoma = tested on: UACC-257 melanoma
UACC-62 melanoma = tested on: UACC-62 melanoma
UO-31 renal = tested on: UO-31 renal

C#C[C@]1(O)CC[C@H]2[C@@H]3CC=C4c5sc(-c6ccc(C)cc6)nc5CC[C@]4(C)[C@H]3CC[C@@]21C
GI50 (786-0 renal): 3.41 µM
TGI (786-0 renal): 61.6 µM
GI50 (A498 renal): > 100 µM
TGI (A498 renal): > 100 µM
GI50 (A549 NSCLC): 95.5 µM
TGI (A549 NSCLC): > 100 µM
GI50 (ACHN renal): > 100 µM
TGI (ACHN renal): > 100 µM
GI50 (BT-549 breast): 25.9 µM
TGI (BT-549 breast): > 100 µM
GI50 (CAKI-1 renal): 60.9 µM
TGI (CAKI-1 renal): > 100 µM
GI50 (CCRF-CEM leukemia): > 100 µM
TGI (CCRF-CEM leukemia): > 100 µM
GI50 (COLO 205 colon): > 100 µM
TGI (COLO 205 colon): > 100 µM
GI50 (DU-145 prostate): > 100 µM
TGI (DU-145 prostate): > 100 µM
GI50 (EKVX NSCLC): > 100 µM
TGI (EKVX NSCLC): > 100 µM
GI50 (HCC-2998 colon): > 100 µM
TGI (HCC-2998 colon): > 100 µM
GI50 (HCT-116 colon): 18.3 µM
TGI (HCT-116 colon): > 100 µM
GI50 (HCT-15 colon): 12.8 µM
TGI (HCT-15 colon): > 100 µM
GI50 (HL-60(TB) leukemia): 35.6 µM
TGI (HL-60(TB) leukemia): > 100 µM
GI50 (HOP-62 NSCLC): > 100 µM
TGI (HOP-62 NSCLC): > 100 µM
GI50 (HOP-92 NSCLC): 36.5 µM
TGI (HOP-92 NSCLC): > 100 µM
GI50 (HS 578T breast): 4.17 µM
TGI (HS 578T breast): > 100 µM
GI50 (HT29 colon): 24.5 µM
TGI (HT29 colon): > 100 µM
GI50 (IGROV1 ovarian): > 100 µM
TGI (IGROV1 ovarian): > 100 µM
GI50 (K-562 leukemia): 9.35 µM
TGI (K-562 leukemia): > 100 µM
GI50 (KM12 colon): > 100 µM
TGI (KM12 colon): > 100 µM
GI50 (LOX IMVI melanoma): > 100 µM
TGI (LOX IMVI melanoma): > 100 µM
GI50 (M14 melanoma): 30.6 µM
TGI (M14 melanoma): > 100 µM
GI50 (MALME-3M melanoma): > 100 µM
TGI (MALME-3M melanoma): > 100 µM
GI50 (MCF7 breast): 46.8 µM
TGI (MCF7 breast): > 100 µM
GI50 (MDA-MB-231 breast): > 100 µM
TGI (MDA-MB-231 breast): > 100 µM
GI50 (MDA-MB-435): > 100 µM
TGI (MDA-MB-435): > 100 µM
GI50 (MOLT-4 leukemia): 45.2 µM
TGI (MOLT-4 leukemia): > 100 µM
GI50 (NCI-H226 lung): > 100 µM
TGI (NCI-H226 lung): > 100 µM
GI50 (NCI-H23 lung): > 100 µM
TGI (NCI-H23 lung): > 100 µM
GI50 (NCI-H460 lung): > 100 µM
TGI (NCI-H460 lung): > 100 µM
GI50 (NCI-H522 lung): > 100 µM
TGI (NCI-H522 lung): > 100 µM
GI50 (NCI/ADR-RES ovarian): > 100 µM
TGI (NCI/ADR-RES ovarian): > 100 µM
GI50 (OVCAR-3 ovarian): > 100 µM
TGI (OVCAR-3 ovarian): > 100 µM
GI50 (OVCAR-4 ovarian): > 100 µM
TGI (OVCAR-4 ovarian): > 100 µM
GI50 (OVCAR-5 ovarian): > 100 µM
TGI (OVCAR-5 ovarian): > 100 µM
GI50 (OVCAR-8 ovarian): > 100 µM
TGI (OVCAR-8 ovarian): > 100 µM
GI50 (PC-3 prostate): 26.2 µM
TGI (PC-3 prostate): > 100 µM
GI50 (RPMI-8226 leukemia): 1.91 µM
TGI (RPMI-8226 leukemia): > 100 µM
GI50 (RXF 393 renal): 4.29 µM
TGI (RXF 393 renal): > 100 µM
GI50 (SF-268 CNS): > 100 µM
TGI (SF-268 CNS): > 100 µM
GI50 (SF-295 CNS): 2.69 µM
TGI (SF-295 CNS): > 100 µM
GI50 (SF-539 CNS): 2.31 µM
TGI (SF-539 CNS): > 100 µM
GI50 (SK-MEL-2 melanoma): > 100 µM
TGI (SK-MEL-2 melanoma): > 100 µM
GI50 (SK-MEL-28 melanoma): > 100 µM
TGI (SK-MEL-28 melanoma): > 100 µM
GI50 (SK-MEL-5 melanoma): > 100 µM
TGI (SK-MEL-5 melanoma): > 100 µM
GI50 (SK-OV-3 ovarian): > 100 µM
TGI (SK-OV-3 ovarian): > 100 µM
GI50 (SN12C renal): > 100 µM
TGI (SN12C renal): > 100 µM
GI50 (SNB-19 CNS): > 100 µM
TGI (SNB-19 CNS): > 100 µM
GI50 (SNB-75 CNS): 6.29 µM
TGI (SNB-75 CNS): > 100 µM
GI50 (SR leukemia): > 100 µM
TGI (SR leukemia): > 100 µM
GI50 (SW-620 colon): > 100 µM
TGI (SW-620 colon): > 100 µM
GI50 (T-47D breast): 93.7 µM
TGI (T-47D breast): > 100 µM
GI50 (TK-10 renal): > 100 µM
TGI (TK-10 renal): > 100 µM
GI50 (U251 CNS): 61 µM
TGI (U251 CNS): > 100 µM
GI50 (UACC-257 melanoma): > 100 µM
TGI (UACC-257 melanoma): > 100 µM
GI50 (UACC-62 melanoma): > 100 µM
TGI (UACC-62 melanoma): > 100 µM
GI50 (UO-31 renal): 28.9 µM
TGI (UO-31 renal): > 100 µM
